The first experiment relates to TrigoCor spores. The experiment is described as follows: Terbium chloride (DPA release) spore germination assay at 37° C., 10 mM germinant (Example 1). As to conditions: 10 mM germinant, incubation time 1 min, mean ± standard deviation. In kind it is cell-based, Bacillus subtilis var. amyloliquefaciens. As for the experimental part:
Bacillus starter cultures were grown in nutrient broth plus yeast extract (Crane et al. 2013), then were transferred 1:1000 to a modified Schaeffer's sporulation medium (Nicholson and Setlow 1990) containing per liter 2.012 g KCl, 0.492 g MgSO4. 7 H20, no NaOH, and 0.0197 g MnCl2.4H20, and grown for 72 h. All cultures were grown in 50 mL aliquots in beveled flasks at 37° C. with 225 RPM shaking. Liquid cultures were spun down at 4° C. for 10 min at 10,000 RCF, washed 10 times in cold deionized water, and resuspended in 5 mL cold deionized water. To remove vegetative cells, cultures were treated with lysozyme (final concentration 50 μg/mL) for 10 min on ice, followed by six rounds of 15 sec sonication on ice, then were washed twice with cold deionized water. Spore preparations were stored in deionized water at 4° C., and prior to use were washed once with cold deionzied water. Unless otherwise noted, spores were resuspended in 25 mM HEPES (Sigma-Aldrich, St. Louis, Mo.) pH 7.41 to produce a final concentration of 10^8 CFUs/mL. Purified spore cultures contained over 98% phase-bright spores and minimal cell debris, as verified through phase contrast microscopy.
Terbium chloride (1 mM) (Sigma-Aldrich, St. Louis, Mo.) and all germinant solutions were prepared in 25 mM HEPES pH 7.41 and added as noted in individual experiments. 90 μL TrigoCor spores were mixed with 10 μL of each germinant (100 mM, final concentration 10 mM) and incubated in a 96-well plate (Thermo Scientific, Waltham, Mass.) at 37° C. for 1, 10, 30, 60, or 120 min. Samples were prepared so that all incubations finished simultaneously and were analyzed together. For each germinant tested, two spore-germinant mixtures were loaded per incubation time. Germinants tested were D-glucose, D-fructose, KBr, KCl, L-alanine, L-asparagine, L-proline, L-valine, and the germinant combination AGFK (equimolar concentrations of L-asparagine, D-glucose, D-fructose, and KCl), or HEPES as a control. Following addition of 100 μL terbium chloride to all samples, fluorescence was measured as explained below.
At each plate reader measurement time, two 90 μL samples of spores autoclaved for 60 min mixed with 10 μL HEPES, as well as a sample containing a mixture of all germinants and HEPES, were added as additional samples in the plate and mixed with 100 μL terbium chloride. A final sample of pure deionized water was included in the plate as well, and these samples were measured alongside all other samples in the plate. Fluorescence was measured at 545 nm emission and 273 nm excitation according to Yi and Setlow (2010) using a Synergy 4 plate reader (Biotek Instruments Inc., Winooski, Vt.). […] Percent spore germination for each sample at each time point was calculated by dividing its relative fluorescence units (RFUs) by the corresponding average RFUs of the autoclaved cells, which have released all their dipicolinic acid (DPA) due to lysis (Yang and Ponce 2009) and provided in Table 1. Spore germination results were confirmed using phase contrast microscopy (data not shown).
Turning to `[Cl-].[K+]` [Potassium chloride], the “Percent germination of TrigoCor spores” value was 1 ± 0%.
In the case of `NC(=O)C[C@H](N)C(=O)O` [L-asparagine], the “Percent germination of TrigoCor spores” value was 1 ± 0%.
With `[Br-].[K+]` [Potassium bromide], the “Percent germination of TrigoCor spores” value was determined as 1 ± 0%.
On the same count and under the same terms, to `O=C(CO)[C@@H](O)[C@H](O)[C@H](O)CO` [D-fructose] belongs 1 ± 0%.
As for `O=C(O)[C@@H]1CCCN1` [L-proline], the “Percent germination of TrigoCor spores” value came to 1 ± 0%.
Same read-out and setting: to `CC(C)[C@H](N)C(=O)O` [L-valine] belongs 1 ± 0%; to `C[C@H](N)C(=O)O` [L-alanine], 1 ± 0%.
`O=C[C@H](O)[C@@H](O)[C@H](O)[C@H](O)CO` [D-glucose]: the “Percent germination of TrigoCor spores” value is recorded as 1 ± 0%.

Still in this experiment, the particulars now being: 10 mM germinant, incubation time 10 min, mean ± standard deviation.
Consider `[Cl-].[K+]` [Potassium chloride], for which the “Percent germination of TrigoCor spores” value is listed as 1 ± 0%.
Consider `NC(=O)C[C@H](N)C(=O)O` [L-asparagine], for which the “Percent germination of TrigoCor spores” value is reported as 1 ± 0%.
Same read-out and setting: to `[Br-].[K+]` [Potassium bromide] belongs 1 ± 0%.
Same read-out and setting: to `O=C(CO)[C@@H](O)[C@H](O)[C@H](O)CO` [D-fructose] belongs 1 ± 0%.
The same measure, in the same setting: to `O=C(O)[C@@H]1CCCN1` [L-proline] belongs 1 ± 0%; to `CC(C)[C@H](N)C(=O)O` [L-valine], 1 ± 0%.
Take `C[C@H](N)C(=O)O` [L-alanine]: the “Percent germination of TrigoCor spores” value turned out to be 4 ± 0%.
Still for that read-out and setting: then `O=C[C@H](O)[C@@H](O)[C@H](O)[C@H](O)CO` [D-glucose], with 1 ± 0%.

Staying with this experiment, now noted: 10 mM germinant, incubation time 30 min, mean ± standard deviation.
For `[Cl-].[K+]` [Potassium chloride], the “Percent germination of TrigoCor spores” value is given as 1 ± 0%.
For the compound `NC(=O)C[C@H](N)C(=O)O` [L-asparagine], the “Percent germination of TrigoCor spores” value is given as 1 ± 0%.
As to `[Br-].[K+]` [Potassium bromide], the “Percent germination of TrigoCor spores” value is on record as 1 ± 0%.
The same measure, in the same setting: then `O=C(CO)[C@@H](O)[C@H](O)[C@H](O)CO` [D-fructose], with 1 ± 0%.
Still for that read-out and setting: then `O=C(O)[C@@H]1CCCN1` [L-proline], with 1 ± 0%; and `CC(C)[C@H](N)C(=O)O` [L-valine], with 1 ± 0%.
Regarding `C[C@H](N)C(=O)O` [L-alanine], the “Percent germination of TrigoCor spores” value came to 20 ± 1%.
Still for that read-out and setting: to `O=C[C@H](O)[C@@H](O)[C@H](O)[C@H](O)CO` [D-glucose] belongs 5 ± 0%.

The experiment is the same for the next values; noted with them: 10 mM germinant, incubation time 60 min, mean ± standard deviation.
As to `[Cl-].[K+]` [Potassium chloride], the “Percent germination of TrigoCor spores” value was 1 ± 0%.
Same read-out and setting: then `NC(=O)C[C@H](N)C(=O)O` [L-asparagine], with 1 ± 0%; and `[Br-].[K+]` [Potassium bromide], with 1 ± 0%; and `O=C(CO)[C@@H](O)[C@H](O)[C@H](O)CO` [D-fructose], with 1 ± 1%.
The same measure, in the same setting: then `O=C(O)[C@@H]1CCCN1` [L-proline], with 1 ± 0%.
Turning to `CC(C)[C@H](N)C(=O)O` [L-valine], the “Percent germination of TrigoCor spores” value stood at 1 ± 0%.
On the same count and under the same terms, to `C[C@H](N)C(=O)O` [L-alanine] belongs 23 ± 1%.
Same read-out and setting: to `O=C[C@H](O)[C@@H](O)[C@H](O)[C@H](O)CO` [D-glucose] belongs 10 ± 1%.

The same experiment, now with this note: 10 mM germinant, incubation time 120 min, mean ± standard deviation.
Regarding `[Cl-].[K+]` [Potassium chloride], the “Percent germination of TrigoCor spores” value turned out to be 1 ± 0%.
Still for that read-out and setting: to `NC(=O)C[C@H](N)C(=O)O` [L-asparagine] belongs 1 ± 0%; to `[Br-].[K+]` [Potassium bromide], 1 ± 0%.
The same measure, in the same setting: then `O=C(CO)[C@@H](O)[C@H](O)[C@H](O)CO` [D-fructose], with 1 ± 1%.
The same measure, in the same setting: then `O=C(O)[C@@H]1CCCN1` [L-proline], with 1 ± 0%.
For the compound `CC(C)[C@H](N)C(=O)O` [L-valine], the “Percent germination of TrigoCor spores” value came to 1 ± 0%.
As to `C[C@H](N)C(=O)O` [L-alanine], the “Percent germination of TrigoCor spores” value is recorded as 21 ± 0%.
Still for that read-out and setting: to `O=C[C@H](O)[C@@H](O)[C@H](O)[C@H](O)CO` [D-glucose] belongs 25 ± 1%.

The experiment is the same for the next values; noted with them: summary of Table 1, 10 mM.
For the compound `C[C@H](N)C(=O)O` [L-alanine], the “percent germination of spores as compared to control (in words)” value (“percent germination of spores” for short) is given as “increases”.
Regarding `O=C[C@H](O)[C@@H](O)[C@H](O)[C@H](O)CO` [D-glucose], the “percent germination of spores” value is recorded as “increases”.

In a further experiment the test system is TrigoCor spores. The experiment can be described thus: Terbium chloride spore germination assay at 37° C., 10 or 100 mM germinant (Example 2). In kind it is cell-based, Bacillus subtilis var. amyloliquefaciens. As to conditions: 10 mM germinant, incubation time 10 min, mean ± standard deviation. How it is done: The following protocol was performed as per Example 1, with the following modification:
Terbium chloride (1 mM) (Sigma-Aldrich, St. Louis, Mo.) and all germinant solutions were prepared in 25 mM HEPES pH 7.41 and added as noted in individual experiments. 450 μL TrigoCor spores were mixed with 50 μL of each germinant (100 mM and 1 M, final concentrations 10 mM and 100 mM) and incubated at 37° C. Two samples were prepared for each germinant and germinants tested were D-glucose, L-alanine, AGFK, and an equimolar solution of glucose and alanine, or HEPES as a control. After 10, 30, 60, and 120 minutes of incubation, 100 μL was transferred from each tube to a 96-well plate. For an initial measurement of spore germination, two 100 μL samples of spores not mixed with germinants and kept at 4° C. were analyzed alongside the samples which had incubated for 10 minutes. Immediately following each sample time, 100 μL terbium chloride was added to all samples and fluorescence was measured as explained previously.
Percent spore germination for each sample at each time point was calculated by dividing its relative fluorescence units (RFUs) by the corresponding average RFUs of the autoclaved cells, which have released all their dipicolinic acid (DPA) due to lysis (Yang and Ponce 2009) and provided in Table 2. Spore germination results were confirmed using phase contrast microscopy (data not shown).
For the compound `C[C@H](N)C(=O)O` [L-alanine], the “Percent germination of TrigoCor spores” value was found to be 1 ± 0%.
Still for that read-out and setting: then `O=C[C@H](O)[C@@H](O)[C@H](O)[C@H](O)CO` [D-glucose], with 1 ± 0%.

The experiment is the same for the next values; noted with them: 10 mM germinant, incubation time 30 min, mean ± standard deviation.
Regarding `C[C@H](N)C(=O)O` [L-alanine], the “Percent germination of TrigoCor spores” value is given as 13 ± 1%.
Still for that read-out and setting: then `O=C[C@H](O)[C@@H](O)[C@H](O)[C@H](O)CO` [D-glucose], with 5 ± 0%.

The same experiment, now with this note: 10 mM germinant, incubation time 60 min, mean ± standard deviation.
On to `C[C@H](N)C(=O)O` [L-alanine], for which the “Percent germination of TrigoCor spores” value is 41 ± 1%.
Still for that read-out and setting: then `O=C[C@H](O)[C@@H](O)[C@H](O)[C@H](O)CO` [D-glucose], with 13 ± 1%.

The experiment is the same for the next values; noted with them: 10 mM germinant, incubation time 120 min, mean ± standard deviation.
In the case of `C[C@H](N)C(=O)O` [L-alanine], the “Percent germination of TrigoCor spores” value is listed as 43 ± 1%.
`O=C[C@H](O)[C@@H](O)[C@H](O)[C@H](O)CO` [D-glucose]: the “Percent germination of TrigoCor spores” value is given as 28 ± 2%.

Staying with this experiment, now noted: 100 mM germinant, incubation time 10 min, mean ± standard deviation.
`C[C@H](N)C(=O)O` [L-alanine]: the “Percent germination of TrigoCor spores” value was determined as 1 ± 0%.
With `O=C[C@H](O)[C@@H](O)[C@H](O)[C@H](O)CO` [D-glucose], the “Percent germination of TrigoCor spores” value is 1 ± 0%.

Staying with this experiment, now noted: 100 mM germinant, incubation time 30 min, mean ± standard deviation.
Consider `C[C@H](N)C(=O)O` [L-alanine], for which the “Percent germination of TrigoCor spores” value stood at 47 ± 1%.
`O=C[C@H](O)[C@@H](O)[C@H](O)[C@H](O)CO` [D-glucose]: the “Percent germination of TrigoCor spores” value is on record as 7 ± 1%.

Staying with this experiment, now noted: 100 mM germinant, incubation time 60 min, mean ± standard deviation.
For the compound `C[C@H](N)C(=O)O` [L-alanine], the “Percent germination of TrigoCor spores” value was 86 ± 3%.
Same read-out and setting: to `O=C[C@H](O)[C@@H](O)[C@H](O)[C@H](O)CO` [D-glucose] belongs 18 ± 2%.

The same experiment, now with this note: 100 mM germinant, incubation time 120 min, mean ± standard deviation.
As for `C[C@H](N)C(=O)O` [L-alanine], the “Percent germination of TrigoCor spores” value stood at 90 ± 3%.
Regarding `O=C[C@H](O)[C@@H](O)[C@H](O)[C@H](O)CO` [D-glucose], the “Percent germination of TrigoCor spores” value was determined as 34 ± 1%.

Staying with this experiment, now noted: summary of Table 2, 10 or 100 mM.
Turning to `C[C@H](N)C(=O)O` [L-alanine], the “percent germination of spores” value is “increases”.
Same read-out and setting: to `O=C[C@H](O)[C@@H](O)[C@H](O)[C@H](O)CO` [D-glucose] belongs “increases”.

The values above are taken from patent US20160106110A1, “COMPOSITIONS AND METHODS FOR ENHANCING GERMINATION” (CORNELL UNIVERSITY, priority 2013, published 2016).
